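Following 48 hours of exposure in 96-well plates, responses at five concentrations were used to interpolate endpoints linearly. GI50 is the concentration that inhibits growth by half.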 Active and inactive are the calls of the source. No stated cut-off is given here; in the data, active = GI50 up to about 1.1 µM and inactive = higher.
Tests used:
Assay in all cases: NCI anticancer screen, dose series, 48 h
NCI-H460 = test system: NCI-H460
CAKI-1 = test system: CAKI-1
SW-620 = test system: SW-620
MDA-N = test system: MDA-N
EKVX = test system: EKVX
HOP-62 = test system: HOP-62
COLO 205 = test system: COLO 205
MOLT-4 = test system: MOLT-4
K562 = test system: K562
T47D = test system: T47D
Malme-3M = test system: Malme-3M
NCI/ADR-RES = test system: NCI/ADR-RES
SK-MEL-28 = test system: SK-MEL-28
SF-268 = test system: SF-268
Hs-578T = test system: Hs-578T
OVCAR-5 = test system: OVCAR-5
M14 = test system: M14
OVCAR-4 = test system: OVCAR-4
SK-OV-3 = test system: SK-OV-3
SK-MEL-2 = test system: SK-MEL-2

Row | Compound | GI50 (NCI-H460) | GI50 (CAKI-1) | GI50 (SW-620) | GI50 (MDA-N) | GI50 (EKVX) | GI50 (HOP-62) | GI50 (COLO 205) | GI50 (MOLT-4) | GI50 (K562) | GI50 (T47D) | GI50 (Malme-3M) | GI50 (NCI/ADR-RES) | GI50 (SK-MEL-28) | GI50 (SF-268) | GI50 (Hs-578T) | GI50 (OVCAR-5) | GI50 (M14) | GI50 (OVCAR-4) | GI50 (SK-OV-3) | GI50 (SK-MEL-2)
1 | CN(C)Cc1cc(C(=O)/C=C/c2ccc(Cl)cc2)cc(CN(C)C)c1O | 10.1 µM (inactive) | 6.05 µM (inactive) | 6.65 µM (inactive) | 10.4 µM (inactive) | 12.8 µM (inactive) | 4.36 µM (inactive) | 4.27 µM (inactive) | 16.3 µM (inactive) | 5.41 µM (inactive) | 27 µM (inactive) | 11.7 µM (inactive) | 15.8 µM (inactive) | 13.4 µM (inactive) | 18.2 µM (inactive) | 17.5 µM (inactive) | 24.2 µM (inactive) | – | – | – | –
2 | O/N=N/c1ccc(-c2ccccc2)cn1 | 6.25 µM (inactive) | 4.55 µM (inactive) | 10.7 µM (inactive) | – | 7.5 µM (inactive) | 3.45 µM (inactive) | 15 µM (inactive) | 0.0755 µM (active) | 19.6 µM (inactive) | 8.18 µM (inactive) | 11.5 µM (inactive) | 8.77 µM (inactive) | 45.2 µM (inactive) | 4.59 µM (inactive) | 23.8 µM (inactive) | 20.3 µM (inactive) | 9.08 µM (inactive) | 23.3 µM (inactive) | 20.3 µM (inactive) | 31.6 µM (inactive)
3 | CCN(CC)CCNC(=O)c1nn(-c2ccc(Cl)cc2)c2c1CCc1cc(OC)ccc1-2 | 4.51 µM (inactive) | 8.41 µM (inactive) | 3.26 µM (inactive) | 3.51 µM (inactive) | 10.2 µM (inactive) | 13.3 µM (inactive) | 2.26 µM (inactive) | 5.75 µM (inactive) | 2.77 µM (inactive) | 4.3 µM (inactive) | 1.6 µM (inactive) | – | 2.03 µM (inactive) | 7.19 µM (inactive) | 3.26 µM (inactive) | 4.75 µM (inactive) | 2.38 µM (inactive) | 8.04 µM (inactive) | 13.7 µM (inactive) | 1.68 µM (inactive)
4 | CCOC(=O)c1nc2ccc(C(F)(F)F)cc2nc1NCc1cc(OC)c(OC)c(OC)c1 | – | > 100 µM (inactive) | 54.1 µM (inactive) | 28.4 µM (inactive) | 60.3 µM (inactive) | > 100 µM (inactive) | 29.3 µM (inactive) | 70.8 µM (inactive) | – | 27.6 µM (inactive) | – | 94.8 µM (inactive) | 34 µM (inactive) | 61.8 µM (inactive) | 32.3 µM (inactive) | > 100 µM (inactive) | > 100 µM (inactive) | – | – | 40.8 µM (inactive)
5 | CC1=NN(c2nc(N)nc(-c3ccccc3S(N)(=O)=O)n2)C(C)(C)C1 | 5.07 µM (inactive) | 3.37 µM (inactive) | 25.8 µM (inactive) | 26.6 µM (inactive) | 36.1 µM (inactive) | 13 µM (inactive) | – | 5.19 µM (inactive) | 35.2 µM (inactive) | 23.8 µM (inactive) | – | 9.33 µM (inactive) | 27.9 µM (inactive) | 8.24 µM (inactive) | 74.1 µM (inactive) | 27.2 µM (inactive) | 6.7 µM (inactive) | 13.2 µM (inactive) | 9.02 µM (inactive) | 9.2 µM (inactive)
6 | COc1cc(COC(=O)N(C)[C@@H](Cc2ccccc2)C(=O)O)c([N+](=O)[O-])cc1OC | > 100 µM (inactive) | – | > 100 µM (inactive) | > 100 µM (inactive) | > 100 µM (inactive) | > 100 µM (inactive) | – | > 100 µM (inactive) | > 100 µM (inactive) | > 100 µM (inactive) | > 100 µM (inactive) | > 100 µM (inactive) | – | > 100 µM (inactive) | > 100 µM (inactive) | > 100 µM (inactive) | > 100 µM (inactive) | – | > 100 µM (inactive) | –
7 | CC(=O)C1C(=O)C(=O)N(c2cccc(C)c2C)C1=O (stereo not drawn) | – | > 100 µM (inactive) | – | > 100 µM (inactive) | > 100 µM (inactive) | > 100 µM (inactive) | > 100 µM (inactive) | 22.8 µM (inactive) | – | > 100 µM (inactive) | – | > 100 µM (inactive) | – | – | – | > 100 µM (inactive) | > 100 µM (inactive) | – | > 100 µM (inactive) | > 100 µM (inactive)
8 | CCOC(=O)c1[nH]cc(C)c1-c1cccn1-c1ccc(Cl)cc1[N+](=O)[O-] | 18.8 µM (inactive) | 31.7 µM (inactive) | 23.1 µM (inactive) | 22.2 µM (inactive) | 20.6 µM (inactive) | 18.6 µM (inactive) | 17.8 µM (inactive) | 17.1 µM (inactive) | 22.6 µM (inactive) | 31 µM (inactive) | – | 17.5 µM (inactive) | 22.8 µM (inactive) | 21.1 µM (inactive) | 15.8 µM (inactive) | 23.2 µM (inactive) | 14.9 µM (inactive) | 32.5 µM (inactive) | – | 15.9 µM (inactive)
9 | COC(=O)c1c[nH]c(=O)[nH]c1=O [ISOOROTIC ACID METHYL ESTER] | > 100 µM (inactive) | > 100 µM (inactive) | > 100 µM (inactive) | > 100 µM (inactive) | > 100 µM (inactive) | – | > 100 µM (inactive) | > 100 µM (inactive) | > 100 µM (inactive) | > 100 µM (inactive) | – | > 100 µM (inactive) | > 100 µM (inactive) | > 100 µM (inactive) | > 100 µM (inactive) | > 100 µM (inactive) | > 100 µM (inactive) | – | – | > 100 µM (inactive)
10 | Nc1ncnc2c1ncn2C1CC(O)C(CO)O1 (stereo not drawn) | > 100 µM (inactive) | > 100 µM (inactive) | > 100 µM (inactive) | > 100 µM (inactive) | > 100 µM (inactive) | > 100 µM (inactive) | > 100 µM (inactive) | > 100 µM (inactive) | > 100 µM (inactive) | > 100 µM (inactive) | > 100 µM (inactive) | > 100 µM (inactive) | > 100 µM (inactive) | > 100 µM (inactive) | – | > 100 µM (inactive) | > 100 µM (inactive) | > 100 µM (inactive) | > 100 µM (inactive) | > 100 µM (inactive)
11 | COc1ccccc1-c1nc(-c2ccccc2O)n[nH]1 | > 100 µM (inactive) | > 100 µM (inactive) | > 100 µM (inactive) | > 100 µM (inactive) | – | > 100 µM (inactive) | > 100 µM (inactive) | > 100 µM (inactive) | > 100 µM (inactive) | 37.2 µM (inactive) | – | > 100 µM (inactive) | > 100 µM (inactive) | > 100 µM (inactive) | > 100 µM (inactive) | > 100 µM (inactive) | > 100 µM (inactive) | > 100 µM (inactive) | > 100 µM (inactive) | > 100 µM (inactive)
12 | O=C(CC(C(=O)c1ccco1)c1ccco1)c1ccco1 (stereo not drawn) | > 100 µM (inactive) | > 100 µM (inactive) | > 100 µM (inactive) | > 100 µM (inactive) | > 100 µM (inactive) | > 100 µM (inactive) | > 100 µM (inactive) | > 100 µM (inactive) | > 100 µM (inactive) | > 100 µM (inactive) | – | > 100 µM (inactive) | > 100 µM (inactive) | > 100 µM (inactive) | > 100 µM (inactive) | > 100 µM (inactive) | > 100 µM (inactive) | 23.8 µM (inactive) | > 100 µM (inactive) | –
